Our source for the IC50 and T/C corr values is ChEMBL document CHEMBL1136763, “Antiestrogenically active 1,1,2-tris(4-hydroxyphenyl)alkenes without basic side chain: synthesis and biological activity” (J Med Chem, 2003).

Broadly, the IC50 is the concentration at which inhibition is half-maximal. Read a high IC50 as weaker potency in that assay.

One test concerns the target Estrogen receptor (Homo sapiens, UniProt Q92731+P03372). The test can be described thus: Inhibition of estradiol induced estrogen receptor transcriptional activation in MCF-7-2a cells. The class given is functional, cell-based.
The subject of a further test is MCF7. Put plainly: Inhibition of MCF-7 cell proliferation at 5 uM. It is filed as functional, Homo sapiens.

As for `Oc1ccc(C=C(c2ccc(O)cc2)c2ccc(O)cc2)cc1`, at Estrogen receptor, the IC50 is 0.2 µM. Besides, the T/C corr in the test with MCF7 was found to be 70%.

With `CC/C(=C(\c1ccc(O)cc1)c1ccc(OCCN(C)C)cc1)c1ccccc1`, in the test on MCF7, the T/C corr was found to be 25%.

At Estrogen receptor, `CC(=C(c1ccc(O)cc1)c1ccc(O)cc1)c1ccc(O)cc1` showed an IC50 of 0.015 µM. Also, in the test with MCF7, the T/C corr was found to be 88%.

In the case of `CCC(=C(c1ccc(O)cc1)c1ccc(O)cc1)c1ccc(O)cc1`, the IC50 at Estrogen receptor was 0.01 µM. Moreover, in the test on MCF7, the T/C corr turned out to be 97%.

On to `CCCCC(=C(c1ccc(O)cc1)c1ccc(O)cc1)c1ccc(O)cc1`, for which the half-inhibitory concentration (IC50) at Estrogen receptor worked out at 0.24 µM. Also, the T/C corr in the test with MCF7 amounted to 114%.

Turning to `CCCC(=C(c1ccc(O)cc1)c1ccc(O)cc1)c1ccc(O)cc1`, the IC50 against Estrogen receptor was 0.07 µM. In addition, in the test on MCF7, the T/C corr is 102%.

`CC/C(=C(\c1ccccc1)c1ccc(OCCN(C)C)cc1)c1ccccc1` [TAMOXIFEN] had a T/C corr with MCF7 of 15%.
